Read-outs that look alike come from different tables or passages of the source. Marks after values point to notes of the source that are not given here.
How the values were obtained:
CYP3A4 [1] = target: CYP3A4 (Homo sapiens, UniProt P08684); conditions: for Km at 2 min: human, fit to eq 1
CYP3A4 [2] = target: T1, CYP3A4 (Homo sapiens, UniProt P08684, S18F)
CYP3A4 [3] = target: T1, CYP3A4; remark: listed apart in the source
CYP3A4 [4] = target: T1, CYP3A4; experiment: Absorbance difference titrations of recombinant CYP3A4 with MDZ and CBZ
CYP3A4 [5] = target: T1, CYP3A4; conditions: read-out: experimental KM for 1′-OH-MDZ formation; ref [23], [86]–[88]; cited from earlier work
[6] = 260 μM Midazolam alone, 1 μM CYP3A4
[7] = 260 μM Midazolam alone, 1 μM CYP3A4, eq 6
[8] = 260 μM Midazolam with 260 μM Carbamazepine bound simultaneously, 1 μM CYP3A4

Question: Which “[MDZ] at which velocity of 1′-OH-MDZ formation reaches a maximum” value (CYP3A4 [1]; absence of CBZ) does the source give for `Cc1ncc2n1-c1ccc(Cl)cc1C(c1ccccc1F)=NC2` [MDZ, midazolam] here?
Answer: The value was 25 µM.

Question: And the Km at 2 min (CYP3A4 [1]; pH 7.4, Km of 1′-OH-MDZ formation, presence of 240 μM CBZ)?
Answer: The Km at 2 min was 12.5 ± 2.1 µM.

Question: What about the Km at 2 min (CYP3A4 [1]; pH 7.4, Km of 4-OH-MDZ formation, absence of CBZ) of the same molecule?
Answer: The Km at 2 min was 47.5 ± 6.8 µM.

Question: What about the Km at 2 min (CYP3A4 [1]; pH 7.4, Km of 4-OH-MDZ formation, presence of 240 μM CBZ) of the same molecule?
Answer: Its Km at 2 min is 57.7 ± 2.1 µM.

Question: And the “RFe2+-CO, proton peak 1′” value (CYP3A4 [2]; [6])?
Answer: The value was 1.53 ± 0.04 s⁻¹.

Question: What about the “RFe2+-CO, proton peak 3” value (CYP3A4 [2]; [6]) of the same molecule?
Answer: The value was 1.45 ± 0.18 s⁻¹.

Question: What about the “RFe2+-CO, proton peak 3F” value (CYP3A4 [2]; [6]) of the same molecule?
Answer: The value was 1.46 ± 0.20 s⁻¹.

Question: What about the “RFe2+-CO, proton peak 4F” value (CYP3A4 [2]; [6]) of the same molecule?
Answer: Its value is 1.91 ± 0.07 s⁻¹.

Question: What about the “RFe2+-CO, proton peak 5F” value (CYP3A4 [2]; [6]) of the same molecule?
Answer: Its value is 1.72 ± 0.10 s⁻¹.

Question: And the “RFe2+-CO, proton peak 6F” value (CYP3A4 [2]; [6])?
Answer: The value was 1.83 ± 0.11 s⁻¹.

Question: And the “RFe2+-CO, proton peak 7” value (CYP3A4 [2]; [6])?
Answer: Its value is 1.67 ± 0.09 s⁻¹.

Question: What about the “RFe2+-CO, proton peak 9” value (CYP3A4 [2]; [6]) of the same molecule?
Answer: The value was 1.65 ± 0.12 s⁻¹.

Question: What about the “RFe2+-CO, proton peak 10” value (CYP3A4 [2]; [6]) of the same molecule?
Answer: The value was 1.81 ± 0.11 s⁻¹.

Question: And the “RFe3+, proton peak 1′” value (CYP3A4 [2]; [6])?
Answer: The value was 2.18 ± 0.02 s⁻¹.

Question: And the “RFe3+, proton peak 3” value (CYP3A4 [2]; [6])?
Answer: The value was 1.88 ± 0.04 s⁻¹.

Question: What about the “RFe3+, proton peak 3F” value (CYP3A4 [2]; [6]) of the same molecule?
Answer: The value was 1.60 ± 0.07 s⁻¹.

Question: What about the “RFe3+, proton peak 4F” value (CYP3A4 [2]; [6]) of the same molecule?
Answer: The value was 1.85 ± 0.04 s⁻¹.

Question: What about the “RFe3+, proton peak 5F” value (CYP3A4 [2]; [6]) of the same molecule?
Answer: The value was 2.17 ± 0.06 s⁻¹.

Question: What about the “RFe3+, proton peak 6F” value (CYP3A4 [2]; [6]) of the same molecule?
Answer: The value was 1.88 ± 0.05 s⁻¹.

Question: And the “RFe3+, proton peak 7” value (CYP3A4 [2]; [6])?
Answer: The value was 1.81 ± 0.05 s⁻¹.

Question: And the “RFe3+, proton peak 9” value (CYP3A4 [2]; [6])?
Answer: The value was 2.97 ± 0.17 s⁻¹.

Question: And the “RFe3+, proton peak 10” value (CYP3A4 [2]; [6])?
Answer: Its value is 2.85 ± 0.06 s⁻¹.

Question: What about the “RP, proton peak 1′” value (CYP3A4 [2]; [6]) of the same molecule?
Answer: The value was 0.65 ± 0.05 s⁻¹.

Question: What about the “RP, proton peak 3” value (CYP3A4 [2]; [6]) of the same molecule?
Answer: Its value is 0.43 ± 0.18 s⁻¹.

Question: And the “RP, proton peak 3F” value (CYP3A4 [2]; [6])?
Answer: The value was 0.14 ± 0.21 s⁻¹.

Question: What about the “RP, proton peak 4F” value (CYP3A4 [2]; [6]) of the same molecule?
Answer: Its value is -0.06 ± 0.08 s⁻¹.

Question: And the “RP, proton peak 5F” value (CYP3A4 [2]; [6])?
Answer: The value was 0.45 ± 0.11 s⁻¹.

Question: What about the “RP, proton peak 6F” value (CYP3A4 [2]; [6]) of the same molecule?
Answer: Its value is 0.05 ± 0.12 s⁻¹.

Question: And the “RP, proton peak 7” value (CYP3A4 [2]; [6])?
Answer: Its value is 0.14 ± 0.10 s⁻¹.

Question: What about the “RP, proton peak 9” value (CYP3A4 [2]; [6]) of the same molecule?
Answer: Its value is 1.31 ± 0.20 s⁻¹.

Question: What about the “RP, proton peak 10” value (CYP3A4 [2]; [6]) of the same molecule?
Answer: The value was 1.03 ± 0.12 s⁻¹.

Question: And the “rmin, proton peak 4F” value (CYP3A4 [2]; 260 μM Midazolam alone, 1 μM CYP3A4, calculated using the highest RP)?
Answer: Its value is 17.02 ^c Å.

Question: And the “rmin, proton peak 1′” value (CYP3A4 [2]; 260 μM Midazolam alone, 1 μM CYP3A4, chemical equivalence (eq 7))?
Answer: Its value is 7.62±0.18 ^b Å.

Question: What about the “rapp, proton peak 1′” value (CYP3A4 [2]; [7]) of the same molecule?
Answer: The value was 9.15±0.22 Å.

Question: What about the “rapp, proton peak 3” value (CYP3A4 [2]; [7]) of the same molecule?
Answer: The value was 9.79±0.71 Å.

Question: What about the “rapp, proton peak 3F” value (CYP3A4 [2]; [7]) of the same molecule?
Answer: Its value is 11.84±2.95 Å.

Question: And the “rapp, proton peak 5F” value (CYP3A4 [2]; [7])?
Answer: Its value is 9.75±0.46 Å.

Question: And the “rapp, proton peak 6F” value (CYP3A4 [2]; [7])?
Answer: The value was 14.13±6.01 Å.

Question: And the “rapp, proton peak 7” value (CYP3A4 [2]; [7])?
Answer: Its value is 11.83±1.50 Å.

Question: And the “rapp, proton peak 9” value (CYP3A4 [2]; [7])?
Answer: The value was 8.14±0.27 Å.

Question: What about the “rapp, proton peak 10” value (CYP3A4 [2]; [7]) of the same molecule?
Answer: Its value is 8.47±0.24 Å.

Question: And the “RFe2+-CO, proton peak 1′” value (CYP3A4 [2]; [8])?
Answer: The value was 1.57 ± 0.04 s⁻¹.

Question: What about the “RFe2+-CO, proton peak 3” value (CYP3A4 [2]; [8]) of the same molecule?
Answer: Its value is 1.44 ± 0.12 s⁻¹.

Question: What about the “RFe2+-CO, proton peak 3F” value (CYP3A4 [2]; [8]) of the same molecule?
Answer: The value was 1.54 ± 0.18 s⁻¹.

Question: What about the “RFe2+-CO, proton peak 4F” value (CYP3A4 [2]; [8]) of the same molecule?
Answer: Its value is ~ 1 sec^−1.

Question: And the “RFe2+-CO, proton peak 5F” value (CYP3A4 [2]; [8])?
Answer: Its value is 1.16 ± 0.19 s⁻¹.

Question: And the “RFe2+-CO, proton peak 6F” value (CYP3A4 [2]; [8])?
Answer: Its value is 1.76 ± 0.13 s⁻¹.

Question: What about the “RFe2+-CO, proton peak 7” value (CYP3A4 [2]; [8]) of the same molecule?
Answer: The value was 1.41 ± 0.06 s⁻¹.

Question: And the “RFe2+-CO, proton peak 9” value (CYP3A4 [2]; [8])?
Answer: The value was 1.26 ± 0.07 s⁻¹.

Question: What about the “RFe2+-CO, proton peak 10” value (CYP3A4 [2]; [8]) of the same molecule?
Answer: The value was 1.76 ± 0.09 s⁻¹.

Question: What about the “RFe3+, proton peak 1′” value (CYP3A4 [2]; [8]) of the same molecule?
Answer: Its value is 2.13 ± 0.04 s⁻¹.

Question: And the “RFe3+, proton peak 3” value (CYP3A4 [2]; [8])?
Answer: Its value is 1.82 ± 0.06 s⁻¹.

Question: What about the “RFe3+, proton peak 3F” value (CYP3A4 [2]; [8]) of the same molecule?
Answer: Its value is 2.04 ± 0.05 s⁻¹.

Question: What about the “RFe3+, proton peak 4F” value (CYP3A4 [2]; [8]) of the same molecule?
Answer: Its value is 1.08 ± 0.05 s⁻¹.

Question: And the “RFe3+, proton peak 5F” value (CYP3A4 [2]; [8])?
Answer: The value was 1.05 ± 0.04 s⁻¹.

Question: What about the “RFe3+, proton peak 6F” value (CYP3A4 [2]; [8]) of the same molecule?
Answer: The value was 1.69 ± 0.24 s⁻¹.

Question: And the “RFe3+, proton peak 7” value (CYP3A4 [2]; [8])?
Answer: Its value is 1.70 ± 0.05 s⁻¹.

Question: What about the “RFe3+, proton peak 9” value (CYP3A4 [2]; [8]) of the same molecule?
Answer: Its value is 2.37 ± 0.07 s⁻¹.

Question: What about the “RFe3+, proton peak 10” value (CYP3A4 [2]; [8]) of the same molecule?
Answer: The value was 2.69 ± 0.06 s⁻¹.

Question: And the “RP, proton peak 1′” value (CYP3A4 [2]; [8])?
Answer: Its value is 0.56 ± 0.06 s⁻¹.

Question: What about the “RP, proton peak 3” value (CYP3A4 [2]; [8]) of the same molecule?
Answer: Its value is 0.38 ± 0.13 s⁻¹.

Question: What about the “RP, proton peak 3F” value (CYP3A4 [2]; [8]) of the same molecule?
Answer: The value was 0.50 ± 0.19 s⁻¹.

Question: What about the “RP, proton peak 4F” value (CYP3A4 [2]; [8]) of the same molecule?
Answer: The value was 0.07 ± 0.12 s⁻¹.

Question: What about the “RP, proton peak 5F” value (CYP3A4 [2]; [8]) of the same molecule?
Answer: The value was -0.11 ± 0.19 s⁻¹.

Question: What about the “RP, proton peak 6F” value (CYP3A4 [2]; [8]) of the same molecule?
Answer: Its value is -0.07 ± 0.27 s⁻¹.

Question: What about the “RP, proton peak 7” value (CYP3A4 [2]; [8]) of the same molecule?
Answer: The value was 0.29 ± 0.08 s⁻¹.

Question: And the “RP, proton peak 9” value (CYP3A4 [2]; [8])?
Answer: The value was 1.11 ± 0.10 s⁻¹.

Question: What about the “RP, proton peak 10” value (CYP3A4 [2]; [8]) of the same molecule?
Answer: The value was 0.93 ± 0.11 s⁻¹.

Question: What about the “average RP of the fluorophenyl protons” value (CYP3A4 [2]; MDZ alone) of the same molecule?
Answer: The value was 0.15 s⁻¹.

Question: And the “average distance of chlorophenyl group from heme” value (CYP3A4 [2]; MDZ alone, calculated from RPs)?
Answer: Its value is ~ 10 Å.

Question: What about the “average distance of fluorophenyl group from heme” value (CYP3A4 [2]; MDZ alone, calculated from RPs) of the same molecule?
Answer: The value was ~ 13 Å.

Question: And the “distance of 1′-CH3 from heme” value (CYP3A4 [2]; MDZ alone, depending on the orientation)?
Answer: The value was 7.6–9.2 Å.

Question: And the “average RP of the fluorophenyl protons” value (CYP3A4 [2]; MDZ in the presence of CBZ)?
Answer: Its value is 0.1 s⁻¹.

Question: What about the “%HS of CYP3A4 heme” value (CYP3A4 [3]; 260 μM MDZ and 260 μM CBZ together, 1 μM CYP3A4) of the same molecule?
Answer: The value was 55%.

Question: What about the “%HS of CYP3A4 heme” value (CYP3A4 [3]; 260 μM MDZ, 1 μM CYP3A4 (33% HS without ligands)) of the same molecule?
Answer: Its value is 70%.

Question: What about the “Δε at 100 μM MDZ in the titration curve” value (CYP3A4 [4]; 120 μM CBZ) of the same molecule?
Answer: The value was ~ 0.015 μM^−1 cm^−1.

Question: What about the “Amax of the MDZ titration curve” value (CYP3A4 [4]; absence of CBZ) of the same molecule?
Answer: Its value is 0.0342 ± 0.0083 µM⁻¹ cm⁻¹.

Question: And the Kd (CYP3A4 [4]; human, pH 7.4)?
Answer: Its Kd is 70.6 ± 29 µM.

Question: What about the “Δε at 100 μM MDZ in the titration curve” value (CYP3A4 [4]; no CBZ) of the same molecule?
Answer: Its value is ~ 0.025 μM^−1 cm^−1.

Question: What about the Km (CYP3A4 [5]) of the same molecule?
Answer: Its Km is 5 to 11 µM.
